{"source": "ChEMBL document CHEMBL2046327", "about": "“Jomthonic acid , a modified amino acid from a soil-derived Streptomyces” (J Nat Prod, 2012)", "key": {"Escherichia coli": {"test_system": "Escherichia coli", "assay": "Antimicrobial activity against Escherichia coli NIH-JC2 after 20 hrs by microplate reader", "type": "functional", "settings": "NIH-JC2, 20 h"}, "Micrococcus luteus": {"test_system": "Micrococcus luteus", "assay": "Antimicrobial activity against Micrococcus luteus ATCC 9343 after 20 hrs by microplate reader", "type": "functional", "settings": "ATCC 9343, 20 h"}, "ST-13": {"test_system": "ST-13", "assay": "Induction of mouse ST-13 cell differentiation into mature adipocyte at 2 to 50 uM", "type": "functional, cell-based"}, "MCF7": {"test_system": "MCF7", "assay": "Cytotoxicity against human MCF7 cells after 48 hrs by MTT assay", "type": "functional, cell-based", "settings": "MCF7, 48 h"}, "[1]": {"assay": "Induction of mouse ST-13 cell differentiation into mature adipocyte at 50 uM", "type": "functional"}, "Candida albicans": {"test_system": "Candida albicans", "assay": "Antimicrobial activity against Candida albicans IFO1594 after 20 hrs by microplate reader", "type": "functional", "settings": "IFO1594, 20 h"}}, "note": "Active and inactive are the calls of the source. The calls are words filed in the database; no cut-off is given here."}
{"compound": "C/C=C(C)/C=C/C(=O)N[C@H](C(=O)O[C@H](C)[C@@H](C)C(=O)O)[C@H](C)c1ccccc1", "note": "[JOMTHONIC ACID A]", "values": [{"measurement": "MIC", "setting": "Escherichia coli", "result": "> 50", "unit": "µg/mL"}, {"measurement": "MIC", "setting": "Micrococcus luteus", "result": "> 50", "unit": "µg/mL"}, {"measurement": "Activity", "setting": "ST-13", "result": "Active"}, {"measurement": "IC50", "setting": "MCF7", "result": "> 100", "unit": "µM"}, {"measurement": "Activity", "setting": "[1]", "result": 80, "unit": "%"}, {"measurement": "MIC", "setting": "Candida albicans", "result": "> 50", "unit": "µg/mL"}]}
